Results taken from patent US12285464B2, “Therapeutic targets involved in the progression of nonalcoholic steatohepatitis (NASH)” (The Trustees of Columbia University in the City of New York, priority 2016, dated 2025).
“Also recorded” adds a separate entry of the source.

How the values were obtained:
TAZ [1] = test: TAZ silencing with AAV8-shTaz in FPC-fed hyperphagic Mc4r-/- mice, 16 weeks; assay type: in vivo; details: FPC diet 16 wks
Protocol: (§1) To study TAZ function in NASH development, FPC mice were treated with AAV8-shTaz vs. AAV8-control RNA. […] Mouse body weight, liver:body weight ratio, fasting blood glucose, plasma insulin, and plasma cholesterol were similar in the Taz shRNA and control groups.
(§2) Male wild-type mice C57BL/6J (#000664, 8-10 weeks/old) and MC4R-negative loxTB Mc4r mice (#006414, 6 weeks/old), referred to here as Mc4r^-/- mice, were obtained from Jackson Laboratory (Bar Harbor, ME) and were allowed to adapt to housing in the Columbia University Medical Center Institute of Comparative Medicine for 1 week prior to random assignment to experimental cohorts. The mice were then fed the following diets for the times indicated in the figure legends: (a) chow diet (Picolab rodent diet 20, #5053); (b) “fast-food” (FF). diet (TestDiet 1810060): high-fat diet with drinking water containing 42 g/L glucose and fructose (55%/45%, w/w); or (c) fructose-palmitate-cholesterol (“FPC”) diet (Teklad, TD.140154): similar to FF diet but with 1.25% added cholesterol and with palmitic acid, anhydrous milk fat, and Primex as the sources of fat and with a ˜60% decrease in vitamin E and a ˜35% decrease in choline compared with typical mouse diets. The detailed composition of these diets appear in Tables 1 and 2. For several experiments, groups of mice were placed on a methionine-choline-deficient diet (Teklad, TD. 90262) for 8 weeks, as described (Dixon et al., 2012). Adeno-associated virus (2×10^11 genome copy/mouse) was delivered by tail vein injection either 1 week prior to diet initiation or after 8 weeks of the FPC diet. Animals were housed in standard cages at 22° C. in a 12-12-h light-dark cycle. All animal experiments were performed in accordance with institutional guidelines and regulations and approved by the Institutional Animal Care and Use Committee at Columbia University.
Formalin-fixed, paraffin-embedded liver sections were stained with hematoxylin and eosin (H&E) and evaluated for severity of NAFLD by a trained hepatopathologist blinded to the clinical diagnosis, αaccording to criteria described by Brunt et al. (Kleiner et al., 2005; Liang et al., 2014). Liver fibrosis was assessed by Picrosirius (Sirius) red (Polysciences, #24901) or by Masson's trichrome staining (Sigma, HT15), with aniline blue-positive areas quantified as a measure of collagen content in the trichrome-stained. sections. TUNEL staining was conducted using a kit from Roche (#12156792910). For immunofluorescence microscsopy, paraffin sections were rehydrated, subjected to antigen retrieval by placing in a pressure cooker for 10 mins in Target Retrieval Solution (Dako, S1699), and then blocked with serum. Sections were labeled with primary antibodies overnight, using a 1:150 dilution except for α-SMA and 4-HNE (1:200) and TAZ (1:400), followed by incubation with a fluorophore-conjugated secondary antibody for 1 h. The stained sections were mounted with DAPI-containing mounting medium (Life Technologies, P36935) and then viewed on an Olympus IX 70 fluorescence microscope. For filipin (Sigma, F9765) staining, frozen sections were fixed in 4% paraformaldehyde for 1 h at room temperature, then rinsed using glycine/PBS and stained 0.25 mg/ml filipin 2 h at room temperature. Fluorescence microscopic images were analyzed using ImageJ software. For immunohistochemistry, the deparaffinization, rehydration, and antigen retrieval processes were the same as with immunofluorescence staining. The slides were treated with 3% hydrogen peroxide for 10 min and then blocked with Serum-Free Protein Block (Dako, X0909) for 30 min. Sections were incubated with OPN, F4/80, or α-SMA primary antibody (1:100) overnight and then developed using DAB substrate kit (Cell Signaling, #8059) for OPN and F4/80,FITC-labeled anti-HRP secondary antibody for α-SMA.
Hydroxyproline liver content was measured as previously described (Bataller et al., 2003; Seki et al., 2009). […]

TAZ [2] = test: shTaz in the MCD (methionine/choline-deficient) diet model; assay type: in vivo, mice
From the text: Thus, in separate models of NASH, hepatic TAZ silencing improved key liver parameters related to inflammation, fibrosis, and cell death without affecting metabolic parameters or steatosis.
as §2

TAZ [3] = test: TAZ silencing with AAV8-shTaz in FPC-fed C57BL/6J mice, FPC diet for 16 weeks; assay type: in vivo; details: FPC diet 16 weeks
Protocol: as §1
The following antibodies were used for immunoblots: GAPDH (#3683), β-actin (#5125), CHOP (#5554), TAZ (#8418), p-eIF2α (#3398), eIF2α (#5324), Lamin A/C (#4777) from Cell Signaling; p-TAZ (sc-17610) and Col1a1 (sc-8784) from Santa Cruz; Ihh (ab39634) from Abcam; and Timp1 (AF980) from R & D. The following antibodies were using for immunostaining of liver: α-SMA (ACTA2) (C6198, F3777) and TAZ (HPA007415) from Sigma; F4/80 (MCA497GA) from AbD Serotec; Ly6g (#127601) from Biolegend; Ly6b (MCA771G) from Bio-Rad; OPN (AF808) from R & D; 4-hydroxynonenal (4-HNE) (AB5605) from Millipore; and HNF4α (sc-6556) from. Santa Cruz. The following plasma assay kits were used in this study: insulin ELISA (#90080) from. Crystal Chem; MCP1 ELISA (#88-7391-22) from eBiosciences; cholesterol (#439-17501) and triglyceride (#465-09791, #461-09891) from Wako; and ALT (#006A-CR) and AST (#004A-CR) from BQ Kits, Inc. AAV8-shRNA targeting murine Taz was made by annealing complementary oligonucleotides (5′-CACCAcagcegaatctcgcaatgaatCTCGAGATTCATTGCGAG ATTCGGCTG-3′) (SEQ ID NO:1), which were then ligated into the pAAV-RSV-GFP-H1 vector, as described previously (Lisowski et al., 2014). The resultant constructs were amplified by the Salk Institute Gene Transfer, Targeting, and Therapeutics Core.
as §2
Fasting blood glucose was measured using a glucose meter (One Touch Ultra, Life-scan) in mice that were fasted for 4-5 h, with free access to water. Complete blood counts were obtained with the FORCYTE Veterinary Hematology Analyzer (Oxford Science, Inc.). Total plasma triglyceride and cholesterol were assayed using a commercially available kit from Wako. For insulin, MCP1, AST, ALT, TC, TG are measured following kit instruction by using plasma.
Formalin-fixed, paraffin-embedded liver sections were stained with hematoxylin and eosin (H&E) and evaluated for severity of NAFLD by a trained hepatopathologist blinded to the clinical diagnosis, αaccording to criteria described by Brunt et al. (Kleiner et al., 2005; Liang et al., 2014). […]

TAZ [4] = test: TAZ silencing after development of steatosis: AAV8-shTaz at week 8 of 16 weeks of FPC diet; assay type: in vivo, mice; details: shTaz at week 8, read at 16 weeks of FPC diet
From the text: To investigate the role of TAZ specifically in steatosis-to-NASH conversion, mice were first fed the FPC diet for 8 weeks and then injected with AA8-shTaz or control virus, followed by an additional 8 weeks on the diet. Note that 8 weeks of FPC diet caused steatosis but no appreciable inflammation or fibrosis (FIG. 6A).
as §2

PCSK9 = details: modified stable siRNA, clinical trials; cited from earlier work
[5] = test system: primary murine hepatic stellate cells (HSCs); test: Conditioned medium transfer from silenced AML12 hepatocytes to primary hepatic stellate cells; assay type: cell-based, mouse; details: CM from TAZ-silenced vs control hepatocytes, 72 h
From the text: To explore the possibility that TAZ-induced Ihh is secreted by hepatocytes and activates HSCs, an in vitro model using AML12 cells, a non-cancerous mouse hepatocyte cell line was utilized (Dumenco et al., 1995), along with primary murine HSCs. Consistent with the in vivo data, siTaz treatment of AML12 hepatocytes lowered cellular Ihh mRNA in the cells and Ihh protein in both the cells and media (FIGS. 8A-C). In the next experiments, conditioned medium (CM) from control or Taz-silenced AML12 cells was utilized, as well as medium not exposed to cells (non-CM), to primary murine hepatic stellate cells (HSCs). […] Finally, to make a more direct link between TAZ-induced Ihh in hepatocytes and activation of HSCs, Ihh was restored in siTaz-treated hepatocytes by Ihh transfection and then analyzed to determine whether this lessened the suppressive effect of CM from these cells on the expression of the fibrosis-related genes in HSCs. […]
(§3) AML12 mouse hepatocytes were purchased from ATCC (CRL-2254) and cultured in DMEM/F12 medium (Lifetechnologies, #11320) with 10% FBS (Gibco, #16140-071). […] For quantification of Ihh, hepatocyte conditioned medium was concentrated 10-fold by centrifugal filters (Millipore, Ultracel) and analyzed by an ELISA kit (LifeSpan Biosciences, F7953).

Taz [6] = test: siTaz treatment of AML12 hepatocytes (Ihh mRNA, immunoblot, ELISA); assay type: cell-based, mouse
From the text: To explore the possibility that TAZ-induced Ihh is secreted by hepatocytes and activates HSCs, an in vitro model using AML12 cells, a non-cancerous mouse hepatocyte cell line was utilized (Dumenco et al., 1995), along with primary murine HSCs. Consistent with the in vivo data, siTaz treatment of AML12 hepatocytes lowered cellular Ihh mRNA in the cells and Ihh protein in both the cells and media (FIGS. 8A-C). In the next experiments, conditioned medium (CM) from control or Taz-silenced AML12 cells was utilized, as well as medium not exposed to cells (non-CM), to primary murine hepatic stellate cells (HSCs). […] Most importantly, CM from TAZ-silenced hepatocytes lowered the levels these mRNAs and protein compared to CM from shCon-treated hepatocytes (FIG. 8D). […] Finally, to make a more direct link between TAZ-induced Ihh in hepatocytes and activation of HSCs, Ihh was restored in siTaz-treated hepatocytes by Ihh transfection and then analyzed to determine whether this lessened the suppressive effect of CM from these cells on the expression of the fibrosis-related genes in HSCs. Transfection of TAZ-silenced hepatocytes with Ihh led to a level of Ihh in the CM that was similar to that in the CM of control hepatocytes (FIG. 8F—compare 1st and 4th bars). As before, the CM of TAZ-silenced hepatocytes suppressed Opn, Timp1 and Col1a1 mRNA in HSCs (FIG. 8G—compare 2nd and 4th bars), and the present results illustrate that restoration of Ihh in these TAZ-silenced cells rescued CM-induced HSC gene expression (FIG. 8G—compare 4th and 5th bars).
as §3, with “#16140-071). Hepatic stellate cells (HSCs) were isolated from 5-6 mo/o BALB/C mice as described previously (Mederacke et al., 2015).” for “#16140-071).”, “F7953). […]” for “F7953).”

Substance: 5′-CACCAcagcegaatctcgcaatgaatCTCGAGATTCATTGCGAG ATTCGGCTG-3′ (DNA CACCACAGCCGAATCTCGCAATGAATCTCGAGATTCATTGCGAGATTCGGCTG; expressed or natural sequence) [AAV8-shTaz, AAV8-shRNA targeting murine Taz; annealed oligonucleotides ligated into the pAAV-RSV-GFP-H1 vector]
- hydroxyproline content of liver (TAZ [1]): lower; also recorded: reduced
- liver inflammation (hepatic inflammatory cells) (TAZ [1]): decreased; also recorded: reduced
- plasma ALT (TAZ [1]): reduced
- staining for Sirius red (TAZ [1]; liver): decreased staining
- staining for aniline blue (TAZ [1]; liver): decreased staining
- staining for α-SMA (TAZ [1]; liver): decreased staining
- hepatic fibrosis (TAZ [2]): decreased
- hepatic inflammation (TAZ [2]): decreased
- macrophages in the liver (TAZ [2]): reduced
- steatosis (TAZ [2]): without impacting
- α-SMA+ cells in the liver (TAZ [2]): reduced
- inflammatory and fibrotic gene expression (TAZ [2]; liver): reduced
- 4-HNE+ liver cells (TAZ [3]): decrease
- TUNEL+ liver cells (TAZ [3]): decrease
- inflammatory cell infiltration in liver sections (TAZ [3]): marked reductions
- plasma ALT (TAZ [3]): decreased
- steatosis (TAZ [3]): not affected
- hepatic Ihh protein (TAZ [3]; immunoblot): suppressed
- F4/80+ macrophages (TAZ [3]; liver): decreases
- expression of mRNAs related to fibrosis (Acta2, Timp1, Des, Col1a1, Col1a2, Col3a1, Vim) (TAZ [3]; liver): robust reduction
- expression of mRNAs related to hepatic inflammation (Tnfa, Mcp1, F4/80 (Adgre1)) (TAZ [3]; liver): robust reduction
- α-SMA+ cells (TAZ [3]; liver): decreases
- silencing of TAZ in liver (immunoblot) (TAZ [3]; vs AAV8-control RNA): robust silencing
- Mouse body weight (TAZ [3]; vs control group): similar
- fasting blood glucose (TAZ [3]; vs control group): similar
- liver:body weight ratio (TAZ [3]; vs control group): similar
- plasma cholesterol (TAZ [3]; vs control group): similar
- plasma insulin (TAZ [3]; vs control group): similar
- fibrosis endpoints in liver sections (TAZ [3]; aniline blue, Sirius red): marked reductions
- F4/80+ macrophages (TAZ [4]): marked reductions
- fibrosis endpoints (aniline blue- and Sirius red-positive areas) (TAZ [4]): marked reductions; also recorded: reduced
- inflammatory cells (TAZ [4]): marked reductions; also recorded: reduced
- inflammatory- and fibrosis-related genes (Tnfa, Mcp1, Tgfb1, Acta2 mRNA) (TAZ [4]): marked reductions; also recorded: reduced
- plasma ALT (TAZ [4]): marked reductions; also recorded: reduced
- α-SMA+ cells (TAZ [4]): marked reductions

Substance: Inclisiran
- toxicity profile (PCSK9): very low toxicity profiles

Substance: siTaz: siRNA against mouse Taz purchased from IDT; target sequence ACAUGGACGAGAUGGAUACAGGUGA (sense ACAUGGACGAGAUGGAUACAGGUGA; purchased from IDT, chemistry not given here; the letters are possibly those of the target site)
- Opn, Timp1 and Col1a1 mRNAs and protein in HSCs [5]: lowered
- cellular Ihh mRNA (Taz [6]): lowered
- Ihh protein in the media (Taz [6]; ELISA): lowered
- Ihh protein in the cells (Taz [6]; immunoblot): lowered
